Experimental data published in ChEMBL document CHEMBL1150785 (Antimicrob Agents Chemother, 2007).
Converted amounts (≈) assume the structure as drawn.

Key:
Type in all cases: functional
[1] = tested on: Mycobacterium tuberculosis; assay: Antimicrobial activity against Mycobacterium tuberculosis in mouse assessed as microbial kill activity
[2] = tested on: Mycobacterium tuberculosis; assay: Antimicrobial activity against Mycobacterium tuberculosis H37Ra assessed as microbial kill activity
[3] = tested on: Mycobacterium tuberculosis; assay: Antimicrobial activity against Mycobacterium tuberculosis H37Ra
[4] = tested on: Mycobacterium tuberculosis; assay: Antimicrobial activity against Mycobacterium tuberculosis H37Ra assessed as early bactericidal activity

Compound: NNC(=O)c1ccncc1 [ISONIAZID]
- log10cfu [1]: 1.3
- log10CFU/ml [2]: 2.89
- MIC [3]: 0.0156 µg/mL (≈ 0.114 µM)
- log10CFU/ml/day [4]: 0.9
